Source: US11020405B2, “Method for prevention or treatment of diabetic complications” (KANGWON NATIONAL UNIVERSITY UNIVERSITY-INDUSTRY COOPERATION …, priority 2017, dated 2021)

Assays:
[1] = tested on: human retinal endothelial cells (HRECs); assay: Analysis of intracellular Ca^2+ (Fluo4-AM, confocal microscopy); format: cell-based
Procedure: Purchased from Applied Cell Biology Research Institute (Cell Systems, Kirkland, Wash.), human retinal endothelial cells (HRECs) were cultured in an M19 medium, containing 20% FBS, 3 ng/mL bFGF, 5 U/mL heparin, 100 U/mL penicillin and […], in a 2% gelatin-coated plate.
Before the following Test Examples 2 to 7, the HRECs were cultured for 6 hr in a medium containing 1% FBS and an antibiotic agent, thus preparing HRECs of Test Example 1.
With reference to FIG. 2A, the HRECs of Test Example 1 were subjected to the respective treatments below, stained with 2 μM Fluo4-AM at 37° C. for 30 min and then measured at time intervals of 10 sec using confocal microscopy (FV-300, Olympus, Tokyo, Japan).
With reference to FIG. 2B, the HRECs of Test Example 1 were subjected to the respective treatments below, cultured for 30 min, stained with 2 μM Fluo4-AM at 37° C. for 30 min and then measured at time intervals of 10 sec using confocal microscopy.

[2] = tested on: retinas of diabetic mice; assay: Analysis of ROS concentration in retinas of diabetic mouse model (DHE); format: in vivo, C57BL/6 mice; conditions: intravitreal 2 μL of 2 mM midazolam, 2 μM Trolox or 500 mM NAC (FIGS. 12, 13)
Procedure: (§1) 6-week-old male C57BL/6 mice (DBL, EumSeong, Korea) were administered with streptozotocin (Sigma-Aldrich) dissolved in a 100 mM citrate buffer (pH 4.5) through intraperitoneal injection in an amount of 150 mg each per kg of mouse weight to give diabetic mouse models. In the diabetic mouse models, the blood glucose level was 19 mM or more when not fasting, and polyuria and diabetes, considered signs of diabetes, were observed. […]
Normal mice (Normal), midazolam-administered normal mice (Midazolam), diabetic mice (Diabetic), midazolam-administered diabetic mice (Diabetic+Midazolam), Trolox-administered diabetic mice (Diabetic+Trolox) and NAC-administered diabetic mice (Diabetic+NAC) were subjected to cervical dislocation and the eyeballs were extracted therefrom and rapidly frozen with an OCT compound (Sakura Finetek, Torrance, Calif., USA). Using a microtome-cryostat (Leica Biosystems, Wetzlar, Germany), 10 μm-thick non-fixed cryosections were prepared, treated with a solution of 5 μM dihydroethidium (DHE, Invitrogen-Molecular Probes) in PBS, stained for 30 min, and measured using confocal microscopy. The results of ROS concentrations quantitatively analyzed using the fluorescence intensity of the cryosections are shown in FIGS. 12 and 13.

[3] = tested on: TGase; assay: Analysis of TGase activity in retinas of diabetic mouse model; format: in vivo, C57BL/6 mice; conditions: intravitreal 2 μL of 2 mM midazolam, 2 μM cystamine or 500 mM MDC (FIGS. 14, 15)
Procedure: as §1
48 μL of 100 mM 5-(biotinamido)pentylamine was injected into the left ventricle of each of normal mice (Normal), midazolam-administered normal mice (Midazolam), diabetic mice (Diabetic), midazolam-administered diabetic mice (Diabetic+Midazolam), flumazenil- and midazolam-administered diabetic mice (Diabetic+flumazenil+Midazolam), cystamine-administered diabetic mice (Diabetic+cystamine) and MDC-administered diabetic mice (Diabetic+MDC) and circulated for 10 min, after which cervical dislocation was performed, and the eyeballs were extracted, fixed with 4% paraformaldehyde for 45 min, incised and subjected to permeation treatment for 30 min. The obtained retinal samples were incubated with a blocking solution for 30 min, treated with FITC-conjugated streptavidin (1:200, v/v), stained for 1 hr, and measured using confocal microscopy. […]

[4] = tested on: retinal vessels of diabetic mice; assay: Fluorescein angiography for mouse model (retinal vascular leakage); format: in vivo, C57BL/6 mice; conditions: intravitreal 2 μL of 2 mM midazolam, 2 μM cystamine or 500 mM MDC (FIGS. 16, 17)
[5] = tested on: kidneys of diabetic mice; assay: Hyperglycemia-induced renal vascular leakage in diabetic mice (FITC-dextran); format: in vivo, C57BL/6 mice; conditions: 10 mg/kg midazolam intraperitoneal daily for 2 days (FIG. 20)
Procedure: FIGS. 20A and 20B show the preventive effects of midazolam against hyperglycemia-induced renal vascular leakage in diabetic mice. Six-week-old male C57BL/6 mice were administered with streptozotocin (150 mg/kg body weight) to give diabetic mouse models. Two weeks after streptozotocin injection, diabetic mice were administered 10 mg/kg midazolam by intraperitoneal injection daily for 2 days, and vascular leakage was investigated. The body weight of mice were measure in normal (19.9±0.3 g), diabetic (17.7±0.3 g), and midazolam supplemented diabetic mice (17.7±0.3 g). Blood glucose levels were also monitored in normal (123.5±6.5 mg/dL), diabetic (505.0±89.0 mg/dL), and midazolam supplemented diabetic mice (500.3±63.3 mg/dL). The mice were anesthetized with 3% isoflurane, and 1.25 mg of FITC-dextran was injected into the right ventricle of each mouse and allowed to circulate for 5 min. The kidneys were dissected, fixed, and embedded in OCT compound. Cryosections of kidneys were stained with nuclear counterstaining with DAPI. Representative images of vascular leakage in kidneys are shown in additional FIG. 20A. Scale bars, 100 μm. The results of vascular leakage quantitatively analyzed by measuring the fluorescence intensity of FITC-dextran in the kidneys are shown in additional FIG. 20B. (n=4 for normal and diabetic, n=6 for diabetic+Midazolam).

SMILES: Cc1ncc2n1-c1ccc(Cl)cc1C(c1ccccc1F)=NC2 [midazolam]
- changes in intracellular Ca^2+ (VEGF-induced) ([1]; 10 ng/ml VEGF and 20 μM midazolam together (FIG. 2A)): no significant changes in intracellular Ca^2+
- changes in intracellular Ca^2+ (VEGF-induced, after washing) ([1]; 20 μM midazolam 30 min, washing with serum-free medium, then 10 ng/ml VEGF (FIG. 2A)): intracellular Ca^2+ elevation was caused
- changes in intracellular Ca^2+ ([1]; 20 μM midazolam alone (FIG. 2A)): no significant changes in intracellular Ca^2+
- ROS concentration in retina compared to normal mice [2]: an increase in ROS concentration was suppressed
- TGase activity in retina compared to normal mice [3]: an increase in TGase activation was suppressed
- retinal vascular leakage compared to normal mice [4]: vascular leakage was prevented
- renal vascular leakage (FITC-dextran extravasation) [5]: blocked by midazolam administration
